According to patent publication US20240277683A1, “COMPOUNDS” (CTXT PTY LTD, priority 2018, published 2024):
Read-outs that look alike come from different tables or passages of the source.

Key:
Type in all cases: cell-based
Settings in all cases: Homo sapiens
[1] = test system: acetylation of the histone H3K23 marker in U2OS cells; assay: Histone H3 Lysine 23 Acetylation Biomarker Assay
Description: Compounds may be tested for their ability to inhibit acetylation of the histone H3K23 marker in the following assay:
The cell line U2OS was seeded at a density of 9,000 cells per well in 96 well optical quality tissue culture plates in RPMI medium and 10% foetal bovine serum, and allowed to adhere for 24 hours under standard culture conditions (37 degree Celsius, 5% CO2). At the end of this period the medium was aspirated. […] After incubation for 24 hours, the cells were fixed with 3.7% formaldehyde in PBS for 20 minutes at room temperature, washed (5×5 minutes) with phosphate buffer saline containing 0.1% Tween 20 and blocked with Odyssey blocking buffer (LI-COR, Lincoln, NE) containing 0.1% TritonX100. Anti-H3K23ac specific antibody (Abcam ab177275) in Odyssey blocking buffer containing 0.1% Tween 20 was added and incubated for 16 hours at 4 degree Celsius. […] Plates were washed as previously and read on a PerkinElmer Phenix high content imaging platform.

[2] = test system: acetylation of the histone H3 Lysine 14 marker in U2OS cells; assay: Histone H3 Lysine 14 Acetylation Biomarker Assay
Description: Compounds may be tested for their ability to inhibit acetylation of the histone H3 Lysine 14 marker in the following assay:
(§1) The cell line U2OS was seeded at a density of 3,000 cells per well in 384-well optical quality tissue culture plates in RPMI medium supplemented with 10% foetal bovine serum and 10 mM Hepes. The cells were allowed to adhere for 24 hours under standard culture conditions (37 degree Celsius, 5% CO2). At the end of this period the cells were washed with serum free medium. […] Plates were washed and read on a PerkinElmer Opera HCS high content imaging platform.

[3] = test system: histone H2A.Z Lysine 7 acetylation marker in U2OS cells; assay: H2A.Z Lysine 7 Acetylation Biomarker Assay
Description: Compounds may be tested for their ability to inhibit the histone H2A.Z Lysine 7 acetylation marker in the following assay:
as §1

[4] = H3K23ac, U2OS cells, 24 hours, read-out: IC50
[5] = H3K14ac, U2OS cells, serum free medium, 24 hours, read-out: IC50
[6] = H2A.ZK7ac, U2OS cells, serum free medium, 24 hours, read-out: IC50

Structure (SMILES) | IC50 [1, 4] | IC50 [2, 5] | IC50 [3, 6] | IC50 ([1]; U2OS, 24 h) | IC50 ([2]; U2OS, 24 h) | IC50 ([3]; U2OS, 24 h)
COc1ccc(C2CC2)cc1-c1cc(NS(=O)(=O)c2c(OC)cccc2OC)no1 [Example 8, N-(5-(5-Cyclopropyl-2-methoxyphenyl)isoxazol-3-yl)-2,6-dimethoxybenzenesulfonamide] |  |  |  | 51.8 nM | 345 nM | 3270 nM
CCc1ccc(OC)c(S(=O)(=O)Nc2cc(-c3cccc(OC)c3)on2)c1 [Example 13, 5-Ethyl-2-methoxy-N-(5-(3-methoxyphenyl)isoxazol-3-yl)benzenesulfonamide] |  |  |  |  | 22400 nM | 
CCOc1ccccc1-c1cc(NS(=O)(=O)c2c(OC)cccc2OC)no1 [Example 5, N-(5-(2-Ethoxyphenyl)isoxazol-3-yl)-2,6-dimethoxybenzenesulfonamide] |  |  |  | 895 nM | 2330 nM | 5640 nM
CCc1ccc(OC)c(S(=O)(=O)Nc2cc(-c3ccc(OC)cc3OC)on2)c1 [Example 12, N-(5-(2,4-Dimethoxyphenyl)isoxazol-3-yl)-5-ethyl-2-methoxybenzenesulfonamide] |  |  |  |  | > 40000 nM | > 40000 nM
COCc1ccc(OC)c(-c2cc(NS(=O)(=O)c3c(OC)cccc3OC)no2)c1 [Example 73, 2,6-Dimethoxy-N-(5-(2-methoxy-5-(methoxymethyl)phenyl)isoxazol-3-yl)benzenesulfonamide] |  |  |  | 17.1 nM | 1290 nM | 35200 nM
COc1ccccc1-c1cc(NS(=O)(=O)CCc2ccccc2)no1 [Example 4, N-(5-(2-Methoxyphenyl)isoxazol-3-yl)-2-phenylethane-1-sulfonamide] |  |  |  | > 10000 nM |  | 
COc1ccc(-c2ccn[nH]2)cc1-c1cc(NS(=O)(=O)c2c(OC)cccc2OC)no1 [Example 72, 2,6-Dimethoxy-N-(5-(2-methoxy-5-(1H-pyrazol-5-yl)phenyl)isoxazol-3-yl)benzenesulfonamide] |  |  |  | 204 nM | 575 nM | 4730 nM
COc1ccccc1-c1cc(NS(=O)(=O)Cc2ccccc2)no1 [Example 2, N-(5-(2-Methoxyphenyl)isoxazol-3-yl)-1-phenylmethanesulfonamide] |  |  |  | > 10000 nM |  | 
COc1ccccc1-c1cc(NS(=O)(=O)c2c(OC)ccc(-c3ccccc3)c2OC)no1 [Example 10, 2,4-Dimethoxy-N-(5-(2-methoxyphenyl)isoxazol-3-yl)-[1,1′-biphenyl]-3-sulfonamide] |  |  |  |  | 4140 nM | > 40000 nM
COc1ccc(S(=O)(=O)Nc2cc(-c3ccccc3OC)on2)c(OC)c1 [Example 57, 2,4-Dimethoxy-N-(5-(2-methoxyphenyl)isoxazol-3-yl)benzenesulfonamide] |  |  |  |  | > 40000 nM | 
COc1ccccc1-c1cc(NS(=O)(=O)Nc2ccccc2)no1 [Example 116, N-Phenyl((5-(2-methoxyphenyl)-1,2-oxazol-3-yl)amino)sulfonamide] |  |  |  | > 20000 nM | > 40000 nM | > 40000 nM
COc1ccccc1-c1cc(NS(=O)(=O)c2ccccc2)no1 [Example 3, N-(5-(2-Methoxyphenyl)isoxazol-3-yl)benzenesulfonamide] |  |  |  | > 10000 nM | 39200 nM | > 40000 nM
COc1ccccc1-c1cc(NS(=O)(=O)c2c(OC)cc(-c3ccccc3)cc2OC)no1 [Example 11, 3,5-Dimethoxy-N-(5-(2-methoxyphenyl)isoxazol-3-yl)-[1,1′-biphenyl]-4-sulfonamide] |  |  |  |  | 2740 nM | 5320 nM
COc1ccc(OC)c(-c2cc(NS(=O)(=O)c3c(OC)cc(-c4ccccc4)cc3OC)no2)c1 [Example 6, N-(5-(2,5-Dimethoxyphenyl)isoxazol-3-yl)-3,5-dimethoxy-[1,1′-biphenyl]-4-sulfonamide] |  |  |  | 471 nM | 526 nM | 1350 nM
CCc1ccc(OC)c(S(=O)(=O)Nc2cc(-c3ccccc3OC)on2)c1 [Example 58, 5-Ethyl-2-methoxy-N-(5-(2-methoxyphenyl)isoxazol-3-yl)benzenesulfonamide] |  |  |  |  | 22400 nM | > 40000 nM
COc1cccc(OC)c1S(=O)(=O)Nc1cc(-c2ccccc2OC(F)(F)F)on1 [Example 22, 2,6-Dimethoxy-N-(5-(2-(trifluoromethoxy)phenyl)isoxazol-3-yl)benzenesulfonamide] |  |  |  | 2130 nM | 762 nM | 4770 nM
COc1ccccc1-c1cc(NS(=O)(=O)NC2CCCCC2)no1 [Example 117, N-Cyclohexyl((5-(2-methoxyphenyl)-1,2-oxazol-3-yl)amino)sulfonamide] |  |  |  | 5560 nM |  | 

Continued, in another order:

IC50 [1, 4] | IC50 [2, 5] | IC50 [3, 6] | Structure (SMILES) | IC50 ([1]; U2OS, 24 h) | IC50 ([2]; U2OS, 24 h) | IC50 ([3]; U2OS, 24 h)
1530 nM | 3840 nM | 19900 nM | COc1ccc(-c2ncco2)cc1-c1cc(NS(=O)(=O)c2c(OC)cccc2OC)no1 [Example 18, 2,6-Dimethoxy-N-(5-(2-methoxy-5-(oxazol-2-yl)phenyl)isoxazol-3-yl)benzenesulfonamide] |  |  | 
 | 25600 nM | > 40000 nM | COc1ccccc1-c1cc(NS(=O)(=O)C2CCCCC2)no1 [Example 102, N-(5-(2-Methoxyphenyl)isoxazol-3-yl)cyclohexanesulfonamide] |  |  | 
178 nM | 216 nM | 9990 nM | CCc1ccc(OC)cc1-c1cc(NS(=O)(=O)c2c(OC)cccc2OC)no1 [Example 23, N-(5-(2-Ethyl-5-methoxyphenyl)isoxazol-3-yl)-2,6-dimethoxybenzenesulfonamide] |  |  | 
 | > 40000 nM | > 40000 nM | COc1cc(Cl)ccc1-c1cc(NS(=O)(=O)c2c(OC)cccc2OC)no1 [Example 21, N-(5-(4-Chloro-2-methoxyphenyl)isoxazol-3-yl)-2,6-dimethoxybenzenesulfonamide] |  |  | 
3940 nM | 7380 nM | 27200 nM | COCc1ccc(OC)cc1-c1nnc(NS(=O)(=O)c2c(OC)cccc2OC)s1 [Example 96, 2,6-Dimethoxy-N-(5-(5-methoxy-2-(methoxymethyl)phenyl)-1,3,4-thiadiazol-2-yl)benzenesulfonamide] |  |  | 
69.3 nM |  |  | COCc1ccc(OC)cc1-c1cc(NS(=O)(=O)c2c(OC)cccc2OC)no1 [Example 71, 2,6-Dimethoxy-N-(5-(5-methoxy-2-(methoxymethyl)phenyl)isoxazol-3-yl)benzenesulfonamide] |  |  | 
2260 nM | 3200 nM | 29300 nM | COc1ccccc1-c1nnc(NS(=O)(=O)c2c(OC)cccc2OC)s1 [Example 17, 2,6-Dimethoxy-N-(5-(2-methoxyphenyl)-1,3,4-thiadiazol-2-yl)benzenesulfonamide] |  |  | 
141 nM | 450 nM | 12100 nM | COc1ccc(Cl)cc1-c1cc(NS(=O)(=O)c2c(OC)cccc2OC)no1 [Example 15, N-(5-(5-Chloro-2-methoxyphenyl)isoxazol-3-yl)-2,6-dimethoxybenzenesulfonamide] |  |  | 
187 nM |  |  | COCc1ccc(OC)c(-c2cc(NS(=O)(=O)Cc3ccccc3)no2)c1 [Example 112, N-(5-(2-Methoxy-5-(methoxymethyl)phenyl)isoxazol-3-yl)-1-phenylmethanesulfonamide] |  |  | 
634 nM |  |  | COc1ccc(-c2ccnn2C)cc1-c1cc(NS(=O)(=O)c2c(OC)cccc2OC)no1 [Example 119, 2,6-Dimethoxy-N-(5-(2-methoxy-5-(1-methyl-1H-pyrazol-5-yl)phenyl)isoxazol-3-yl)benzenesulfonamide] |  |  | 
117 nM | 193 nM | 1770 nM | CCOc1ccc(OC)cc1-c1cc(NS(=O)(=O)c2c(OC)cccc2OC)no1 [Example 16, N-(5-(2-Ethoxy-5-methoxyphenyl)isoxazol-3-yl)-2,6-dimethoxybenzenesulfonamide] |  |  | 
275 nM |  |  | COc1ccc(OC)c(-c2nnc(NS(=O)(=O)c3c(OC)cccc3OC)s2)c1 [Example 70, N-(5-(2,5-Dimethoxyphenyl)-1,3,4-thiadiazol-2-yl)-2,6-dimethoxybenzenesulfonamide] |  |  | 
173 nM | 3000 nM | 17100 nM | COc1ccc(-n2cccn2)cc1-c1cc(NS(=O)(=O)c2c(OC)cccc2OC)no1 [Example 105, 2,6-Dimethoxy-N-(5-(2-methoxy-5-(1H-pyrazol-1-yl)phenyl)isoxazol-3-yl)benzenesulfonamide] |  |  | 
> 10000 nM |  | 5420 nM | COc1ccc(CC2CCCCC2)cc1-c1cc(NS(=O)(=O)c2c(OC)cccc2OC)no1 [Example 19, N-(5-(5-(Cyclohexylmethyl)-2-methoxyphenyl)isoxazol-3-yl)-2,6-dimethoxybenzenesulfonamide] |  |  | 
474 nM |  |  | COc1cccc(OC)c1S(=O)(=O)Nc1nnc(-c2cc(Cl)ccc2OC(C)C)s1 [Example 111, N-(5-(5-Chloro-2-isopropoxyphenyl)-1,3,4-thiadiazol-2-yl)-2,6-dimethoxybenzenesulfonamide] |  |  | 
132 nM | 220 nM | 2500 nM | COc1ccc(OC(C)C)c(-c2cc(NS(=O)(=O)c3c(OC)cccc3OC)no2)c1 [Example 14, N-(5-(2-Isopropoxy-5-methoxyphenyl)isoxazol-3-yl)-2,6-dimethoxybenzenesulfonamide] |  |  | 
